Measurements as given in article PMC11084348, “Characterization of Phenolic Compounds in Extra Virgin Olive Oil from Granada (Spain) and Evaluation of Its Neuroprotective Action” (International Journal of Molecular Sciences, 2024).

What was measured:
[1] = target: T1, COX-2 (Homo sapiens, UniProt P35354); assay: biochemical; conditions: 5 concentrations of standard, linear regression of dose-response curve
T1 construct: purchased Merck (Madrid, Spain)
T1 sequence (P35354 18-604): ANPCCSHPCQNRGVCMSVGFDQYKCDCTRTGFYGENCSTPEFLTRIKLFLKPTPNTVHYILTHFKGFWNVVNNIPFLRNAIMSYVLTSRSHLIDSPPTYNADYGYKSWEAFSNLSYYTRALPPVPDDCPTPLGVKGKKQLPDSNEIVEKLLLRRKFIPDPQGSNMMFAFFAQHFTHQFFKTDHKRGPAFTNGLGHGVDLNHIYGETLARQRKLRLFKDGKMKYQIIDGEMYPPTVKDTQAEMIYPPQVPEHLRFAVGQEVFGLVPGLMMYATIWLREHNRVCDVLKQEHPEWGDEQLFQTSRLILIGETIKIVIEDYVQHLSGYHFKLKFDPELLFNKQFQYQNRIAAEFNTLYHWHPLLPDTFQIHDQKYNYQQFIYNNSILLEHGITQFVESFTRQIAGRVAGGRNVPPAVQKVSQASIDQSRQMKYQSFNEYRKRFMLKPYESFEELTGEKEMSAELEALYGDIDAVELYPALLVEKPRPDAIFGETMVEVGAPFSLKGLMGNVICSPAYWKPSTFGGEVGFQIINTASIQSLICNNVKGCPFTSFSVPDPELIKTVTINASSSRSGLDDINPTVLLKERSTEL
Procedure: For the COX-2 assay, a COX-2 Inhibitor Screening Kit from Merck (Madrid, Spain) was purchased. […] In both assays, a spectrophotometer from BioTek Synergy from Agilent Technologies (Santa Clara, CA, USA) was used.
The COX-2 assay was performed using the COX fluorescent inhibitor assay kit with slight modifications and measured spectrophotometrically (BioTek Synergy, Agilent Technologies, Santa Clara, CA, USA). EVOO extracts were diluted (1/200) in ethanol:water (1:1, v/v). Briefly, the assay was carried out in a 96-well plate, in which 10 μL of diluted EVOO extracts and 80 μL of the reaction mix (containing the cofactor, the probe, and the COX-2 enzyme) were added. […] EVOO extracts were analyzed in duplicate.

[2] = target: T2, acetylcholinesterase from Electrophorus electricus (Electrophorus electricus, UniProt O42275); assay: AChE inhibition assay (Ellman, spectrophotometric); type: biochemical; conditions: for IC50: 5 concentrations of standard, linear regression of dose-response curve
T2 construct: purchased Merck (Madrid, Spain)
Description: For the COX-2 assay, a COX-2 Inhibitor Screening Kit from Merck (Madrid, Spain) was purchased. For the analysis of AChE inhibition, acetylcholinesterase from Electrophorus electricus (lyophilized powder, 500 U), Base Trizma® (99.9% purity), chloridric acid (37%), Ellman Reactive (5,5′-dithiobis-(2-nitrobenzoic) acid, DTNB, 98% purity), acetylthiocholine iodide (≥98% purity), and physostigmine salicylate were purchased from Merck (Madrid, Spain). In both assays, a spectrophotometer from BioTek Synergy from Agilent Technologies (Santa Clara, CA, USA) was used.
AChE inhibitory activity was measured using a spectrophotometric assay described by Ellman et al. with slight modifications. First, in a 96-well plate, the AChE enzyme (10 mU mL^−1) (dissolved in 50 mM Tris-HCl buffer, pH 8.0) was incubated with the DTNB (150 μM) and 12 μL aliquots of the corresponding EVOO extracts in a final reaction volume of 250 μL. In addition, the inhibition control (physostigmine), the standards Ol, Lut, and Hyty, and the positive control of AChE activity (substituting the extracts/standards by the solvent of the extracts: ethanol:water (1:1, v/v) were tested. After 15 min of incubation at 30 °C, the substrate (acetylthiocholine iodide 150 μM, ATCh) was added, and AChE activity was determined by measuring the increase in absorbance reading at 405 nm for 15 min at 30 °C in a spectrophotometer (BioTek Synergy, Agilent Technologies, Santa Clara, CA, USA).
The AChE inhibitory activity of the EVOO extracts was expressed as a percentage of inhibition with respect to the positive activity control, indicating the average value obtained by analyzing the 3 extraction replicates obtained from each EVOO extract and analyzing them in duplicate. IC50, the concentration of a standard bioactive compound capable of inhibiting 50% of AChE activity, was determined by measuring 5 different concentrations of the standard compound in the reaction medium and interpolating in the linear regression of the dosis-response curve.

T2 sequence (O42275 24-633): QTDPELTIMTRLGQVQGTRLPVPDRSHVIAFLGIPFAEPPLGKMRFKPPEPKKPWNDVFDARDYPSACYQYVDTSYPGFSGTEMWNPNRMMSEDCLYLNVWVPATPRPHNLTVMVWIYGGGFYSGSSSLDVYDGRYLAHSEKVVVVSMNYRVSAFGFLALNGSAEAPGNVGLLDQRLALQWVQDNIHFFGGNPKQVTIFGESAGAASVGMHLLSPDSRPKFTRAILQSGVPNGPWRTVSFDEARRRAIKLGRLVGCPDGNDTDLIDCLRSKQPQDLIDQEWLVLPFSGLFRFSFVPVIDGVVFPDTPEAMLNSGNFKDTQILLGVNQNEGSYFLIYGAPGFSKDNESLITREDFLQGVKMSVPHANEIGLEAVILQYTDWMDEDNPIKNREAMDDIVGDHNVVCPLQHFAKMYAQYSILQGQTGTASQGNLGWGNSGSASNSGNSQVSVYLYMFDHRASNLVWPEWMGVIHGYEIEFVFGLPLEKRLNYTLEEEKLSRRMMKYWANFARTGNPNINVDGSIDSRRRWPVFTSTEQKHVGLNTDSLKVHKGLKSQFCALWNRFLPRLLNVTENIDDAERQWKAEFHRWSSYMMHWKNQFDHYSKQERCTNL

OCCc1ccc(O)c(O)c1 [Hyty, hydroxytyrosol]
IC50 [1]: 10.8 µM
IC50 [2]: 328 µM

O=c1cc(-c2ccc(O)c(O)c2)oc2cc(O)cc(O)c12 [Lut, luteolin]
IC50 [2]: 145 µM

C/C=C1/[C@H](O[C@@H]2O[C@H](CO)[C@@H](O)[C@H](O)[C@H]2O)OC=C(C(=O)OC)[C@H]1CC(=O)OCCc1ccc(O)c(O)c1 [Ol, oleuropein]
IC50 [1]: 9.65 µM
IC50 [2]: 417 µM

CNC(=O)Oc1ccc2c(c1)[C@]1(C)CCN(C)[C@@H]1N2C [Physostigmin, physostigmine salicylate]
inhibition at 0.025 µM ([2]; 0.025 µM of physostigmin in 250 μL of medium reaction containing 2.5 mU of AChE): 48.5 ± 1.69%
